One block for each molecule: values may come before it.
Columns and labels:
[1] = system: lung tumors of DK mice; experiment: In vivo anticancer effect in DK mice (lung tumors); details: DK mice, non-toxic dose of Adriamycin, FIG. 10B
Procedure: All experimental procedures using laboratory animals were approved by the animal care committee of Pusan National University. DX2 (C57/BL6) and K-RasLA2 (C57/BL6) mice were obtained from Dr. Kim, Sung-Hoon and Professor. Choi, Kang-Ryeol (Yonsei University), respectively, and double Tg mice were obtained by cross-breeding of DX2 and K-RasLA2 mice. Before experiment, all mice were maintained under temperature- and light-controlled conditions (20-23° C., 12 h/12 h light/dark cycle), and provided autoclaved food and water.
Every weeks, tumor volume and body weight were measured.
After dissection of mice, tissues were fixed using 10% formalin (in PBS) for 24 hours, and embedded in paraffin blocks according to a basic tissue processing procedure. For histological analysis, embedded tissues were cut for […] by Leica microtome (Wetzlar, Germany) and transferred onto adhesive-coated slides (Marienfeld laboratory glassware, Germany). After deparaffin and rehydration, sections were then stained with H&E for routine examination.
For IHC staining, rehydrated tissue sections were incubated with antibodies to Ki-67 (Abcam, ab15580), pan-keratin (Sigma, C2931), pro-surfactant C (Millipore, AB3786), NSE (DAKO, IS612), and HER2/Neu (DAKO, A0458) for a reaction. Antigen retrieval was performed using 10 mM sodium citrate (pH 6.0) twice at a temperature of 95° C. for 10 minutes each, and endogenous peroxidase activity was blocked with 3% […] for 10 min. Then, the slides were dehydrated following a standard procedure and sealed with cover glass using mounting solution. TUNEL reaction was done as described in the manual for In Situ Cell Death Detection Kit, POD (Hoffmann-La Roche Ltd, Basel, Swizerland).
To evaluate tumor incidence, lung tissues of each mouse was fixed and embedded in paraffin. 5 sections from each mouse were examined by 3 independent investigator, who counted tumor. In addition, tumor area was calculated by tumor occupied area in total lung area using photoshop software.

[2] = system: H446 xenograft
Procedure: DK (5 month-old, N=6) mice were administered with carrier, SLCB050 (5 or 10 mg/kg), Adriamycin (1, 2.5, or 5 mg/kg), and a combination of SLCB050 and Adriamycin by intraperitoneal (i.p.) injection. After termination of the experiment of each group, mice were dissected and isolated lung tissues. For xenograft, 1×10^7 H446 cells (ATCC) were seeded in nude ice. After 4 weeks, tumor bearing mice were injected with Adriamycin, […], or a combination thereof for 6 weeks. Every weeks, tumor volume and body weight were measured.

[3] = system: H128 cells (SCLC cell line); experiment: MTT viability of H128 cells; format: cell-based, human; details: MTT assay, FIG. 7
Procedure: By MTT assay, anticancer effects were confirmed based on viability of tumor cells. That is, cells were incubated in 0.5 mg/ml of MTT solution for 4 hours at a temperature of 37° C. for a reaction, and then, formazen products formed therefrom were dissolved in dimethyl sulfoxide (DMSO). Then, absorbance thereof was measured at 540 nm by using a spectrometer.

[4] = molecular target: T1, p53-p14/ARF interaction (Homo sapiens, UniProt P04637+Q8N726); experiment: GST pull-down assay, selectivity: p53-p14/ARF interaction; format: binding; details: FIG. 3D, 3E
T1 construct: a p14/ARF fragment (full-length) was ligated into EcoRI and Hind II sites of pGEX-TEV vector; made in house; host or cells: E. coli BL21(DE3) for GST-p14/ARF
Description: (§1) Through GST pull-down assays, more specific binding inhibitors were selected among the previously screened candidate drugs as DX2-p14/ARF binding inhibitors. That is, a p14/ARF fragment (full-length) was ligated into EcoRI and Hind II sites of pGEX-TEV vector, which is a modified vector by adding a TEV protease cleavage site to pGEX-4T1. The recombinant proteins were then expressed in E. coli strain BL21(DE3) as GST-fusion proteins. The proteins were purified by glutathione affinity chromatography.
(§2) To address direct binding between the two proteins, agarose-bead conjugated GST (negative control) or GST-target protein was incubated with cell lysate or recombinant protein in radioimmunoprecipitation assay (RIPA) buffer (NaCl, 25 mM Tris-Cl, 1% NP-40, 1% sodium deoxycholate, 0.1% SDS, protease inhibitor mixture) for 1 hour at a temperature of 4° C. for a reaction.

[5] = molecular target: T2, DX2-p14/ARF binding (Homo sapiens, UniProt Q13155); experiment: GST pull-down assay of DX2-p14/ARF binding; details: FIG. 2A, 3A, 3D, 3E
T2 construct: made in house; host or cells: E. coli BL21(DE3) for GST-p14/ARF; DX2 from 'cell lysate or recombinant protein'
T2 sequence (Q13155 1-251 isoform Q13155-2): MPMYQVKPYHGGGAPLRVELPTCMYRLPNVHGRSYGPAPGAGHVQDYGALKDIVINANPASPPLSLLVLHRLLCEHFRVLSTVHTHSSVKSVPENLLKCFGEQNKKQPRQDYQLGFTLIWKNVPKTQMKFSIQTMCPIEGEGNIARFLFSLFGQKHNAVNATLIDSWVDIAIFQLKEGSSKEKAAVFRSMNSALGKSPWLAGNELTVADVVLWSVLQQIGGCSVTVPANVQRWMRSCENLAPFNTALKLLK
Description: as §1, §2

T1 sequence (Q8N726 whole entry, the tested form may be a part): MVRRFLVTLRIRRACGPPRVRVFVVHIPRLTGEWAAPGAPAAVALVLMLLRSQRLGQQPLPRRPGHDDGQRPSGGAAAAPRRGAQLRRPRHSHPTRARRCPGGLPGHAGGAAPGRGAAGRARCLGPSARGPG
T1 sequence (P04637 whole entry, the tested form may be a part): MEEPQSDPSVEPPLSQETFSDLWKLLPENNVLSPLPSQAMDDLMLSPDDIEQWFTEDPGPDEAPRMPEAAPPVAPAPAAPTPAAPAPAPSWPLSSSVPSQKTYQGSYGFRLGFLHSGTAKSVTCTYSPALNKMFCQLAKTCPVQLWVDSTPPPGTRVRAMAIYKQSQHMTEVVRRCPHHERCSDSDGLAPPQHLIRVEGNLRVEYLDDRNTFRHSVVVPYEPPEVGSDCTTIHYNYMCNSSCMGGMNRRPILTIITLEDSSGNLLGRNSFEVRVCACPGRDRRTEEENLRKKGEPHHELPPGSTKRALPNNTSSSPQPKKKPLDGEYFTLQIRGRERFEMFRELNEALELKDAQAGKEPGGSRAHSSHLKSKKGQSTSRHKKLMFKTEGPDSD

Structure (SMILES): COc1cccc2c1C(=O)c1c(O)c3c(c(O)c1C2=O)C[C@@](O)(C(=O)CO)C[C@@H]3O[C@H]1C[C@H](N)[C@H](O)[C@H](C)O1 [Adriamycin, reference compound]
anticancer effect, Adriamycin alone [1]: did not show anticancer effect
toxicity, Adriamycin alone ([2]; Adriamycin 5 mg/kg, three times/week): evoked rapid weight loss and death
tumor growth, Adriamycin alone ([2]; Adriamycin 5 mg/kg, three times/week, FIG. 9B): tumor growth was suppressed within 4 weeks
response of H446 xenograft model ([2]; single agents, FIG. 9A): resistant

Structure (SMILES): CC1(C)Oc2cc3oc(=O)ccc3cc2C[C@H]1OC(=O)N/C=C/c1ccco1 [HJH141204, (7R)-(−)-2-(Furan-2-yl)vinylcarbamic Acid, 8,8-dimethyl-2-oxo-6,7-dihydro-2H,8H-pyrano[3,2-g]chromen-7-yl-ester]
viability of H128 cells [3]: reduced the viability of H128 cells in a dose-dependent manner
effect on interaction of p53-p14/ARF [4]: did not affect the interaction of p53-p14/ARF
inhibitory effect on DX2-p14/ARF binding [5]: showed inhibitory effects on DX2-p14/ARF binding

melting point: 58.5 °C
Structure (SMILES): CC1(C)Oc2cc3oc(=O)ccc3cc2C[C@@H]1OC(=O)N/C=C/c1ccco1 [HJH141206, (7S)-(+)-2-(Furan-2-yl)vinylcarbamic acid, 8,8-dimethyl-2-oxo-6,7-dihydro-2H, 8H-pyrano[3,2-g]chromen-7-yl-ester]
viability of H128 cells [3]: reduced the viability of H128 cells in a dose-dependent manner
effect on interaction of p53-p14/ARF [4]: did not affect the interaction of p53-p14/ARF
inhibitory effect on DX2-p14/ARF binding [5]: showed inhibitory effects on DX2-p14/ARF binding

Structure (SMILES): COc1cc(/C=C/C(=O)O[C@H]2Cc3cc4ccc(=O)oc4cc3OC2(C)C)ccc1O [SLCB36, reference compound]
viability of H128 cells [3]: did not significantly affect the cell viability
effect on interaction of p53-p14/ARF [4]: did not show inhibitory effect on both binding
inhibitory effect on DX2-p14/ARF binding [5]: did not show inhibitory effect on both binding

From patent publication US10072021B2, “Compound for inhibiting binding between DX2 protein and P14/ARF protein, and pharmaceutical composition for treating or preventing cancer disease containing same as effective ingredient” (PUSAN NATIONAL UNIVERSITY INDUSTRY-UNIVERSITY COOPERATION …, priority 2014, dated 2018)
